Results taken from article PMC10952535, “The differential binding and biological efficacy of auxin herbicides” (Pest Management Science, 2022).

Tests used:
[1] = tested on: Arabidopsis thaliana wild type (WT) Col‐0; test: Foliar efficacy bioassay, wild type; format: in vivo; conditions: foliar application; for GR50 (DW % of NT): dry weight at 14 DAT
Procedure: (§1) Bioassays were carried out with the model species Arabidopsis thaliana. The wild type (WT) Col‐0 line was compared to an afb5‐1 mutant line in a Col‐0 background containing a missense mutation of R609K.[11] A. thaliana seeds were sown on Metro‐mix 360 potting mix (Sungro Horticulture) supplemented with vermiculite and stratified for 3 days at 4 °C in the dark. Flats were moved to a growth chamber (as above) and a plastic lid was placed on the flat. On germination, the lid was removed. After 2 weeks in the growth chamber, seedlings were transplanted into 3‐in. pots with Metro‐mix 360 potting mix and moved to a greenhouse. The greenhouse was maintained at a day/night temperature of 23/22 °C and supplemented with light to complete a 16 h photoperiod. Plants were allowed to recover from transplanting for 1 week prior to applications. A. thaliana seedlings were sprayed with test compounds at five rates with four replications. Tests included nontreated and solvent check controls. Individual compound doses varied and were based on plate test data or anecdotal potency. Compounds were formulated as technical material and were initially dissolved in 1 part 97:3 (v/v) acetone: dimethylsufoxide (DMSO) followed by 5 parts 1.5% (v/v) Agridex crop oil concentrate in distilled water to give a final concentration of 1.25% (v/v) Agridex. Formulated compounds were sprayed at a volume of 187 L ha^−1 at a spray height of 43 cm above the plants with an overhead Mandel track sprayer set with 8002 E Tee jet nozzle. Plants were treated at rosette stage just prior to or at initiation of bolting. After spray application, plants were allowed to dry then moved back to the greenhouse. Plants were grown in the greenhouse (same conditions as above) for 2 weeks until harvest. Visual injury/growth reduction observations were made at 7 and 14 days after treatment (DAT) and scored where 0% = no growth reduction and 100% = complete growth reduction or plant death. At 14 DAT the plants were harvested and dried to collect dry weight (DW) biomass.
(§2) The data collected in the foliar application of compounds generated a measure of sensitivity or dose response. The data was analyzed by regression in JMP 10.0 and fit to a nonlinear exponential three parameter fit model:
(§3) where a is the asymptote, b is the scale and c is the rate of growth. The model was used to determine the herbicidal dose that caused 50% reduction in growth (GR50). GR50 values were compared between mutant and WT to give an indication of fold resistance over WT (Table 3). A log‐logistic model[24] was also used to fit the data and gave similar GR50 values with greater standard errors without changing the pattern of responsiveness.

[2] = tested on: Arabidopsis thaliana afb5‐1 mutant line; format: in vivo; conditions: for GR50 (DW % of NT) / GR50 (visual injury): afb5‐1, foliar application; for GR50 (DW % of NT): dry weight at 14 DAT; for Resistance ratio (afb5‐1 vs WT), DW: ratio of dry weight GR50 values; for Resistance ratio (afb5‐1 vs WT), DW / Resistance ratio (afb5‐1 vs WT), visual injury: foliar application; for Resistance ratio (afb5‐1 vs WT), visual injury: ratio of visual injury GR50 values
Procedure: as §1, §2, §3

[3] = tested on: Arabidopsis thaliana afb5‐1 seedlings; test: Root growth inhibition bioassay, afb5‐1 mutant; format: in vivo; conditions: afb5‐1 vs WT dose-response, 8 days
Procedure: A. thaliana seed was surface sterilized in 10 mL of 50% bleach and two drops of Tween‐20 for 12 min and rinsed six times with sterile water. Sterile growth media consisted of half‐strength Murashige and Skoog salts supplemented with 0.4% agar and 0.8% sucrose. In a laminar flow hood, 8 mL of liquid media was transferred to sterile test‐tubes placed in a heat block to maintain media in a liquid state. Compounds were previously diluted in 50/50 DMSO/water to a known molar concentration. A 50‐μL aliquot of diluted compound was added to each tube to give a specified final concentration, normally 10, 1, 0.1, 0.01 or 0.001 μM. A single tube was treated with solvent only as a control. Test compounds were mixed into the media by pipetting up and down three times, then 6 mL of media with test compound was added to one well in a six‐well plate, working from low‐to‐high concentration, and allowed to solidify in the laminar flow hood. Approximately 15 sterilized seeds were placed on the solidified surface and the remaining 2 mL of liquid media was added to cover and disperse seeds. Plates were sealed with paraffin and moved to a Conviron growth chamber set to 60% humidity, 25 °C and light intensity 100 μE m^2 s^−1 with a 16 h photoperiod. After 8 days primary root measurements of five random plants were taken by removing plants from media and measuring with a ruler. Treatments were compared against the solvent control to determine percentage root growth inhibition. Each experiment was run twice and averages were combined for analysis.

AtTIR1 [4] = biological target: T1, AtTIR1 (Arabidopsis thaliana, UniProt Q570C0); test: SPR relative binding (co-receptor complex formation with Aux/IAA7 degron), AtTIR1; conditions: 50 μM compound, compared to IAA
T1 construct: His10 (N, cleaved yes); eGFP (N, cleaved yes); FLAG (N, cleaved yes); made in house; host or cells: baculovirus; Trichoplusia ni Hi5 cells (virus generated in Sf9)
Procedure: (§4) Auxin binding assays using surface plasmon resonance (SPR) were performed on a Biacore 2000 as described previously.[3], [18], [23] Protein was stored on ice and protein concentrations were assayed by A280 nm measurement (nanodrop, Thermo Scientific). Briefly, AtAux/IAA7 degron peptide was immobilized on streptavidin‐coated SPR chips, and binding was measured in the presence of IAA or auxin analogue by recruitment of the TIR1/AFB protein from solution as the co‐receptor complex formed on the chip. Kinetic analyses were performed by single cycle kinetics on a Biacore T200 (Cytiva Life Sciences), titrating compounds against a fixed concentration of TIR1 before injection. The degron peptide density on the chips was controlled so that R max < 300 Response UNits (RU).

AtAFB2 [5] = biological target: T2, AtAFB2 (Arabidopsis thaliana, UniProt Q9LW29); test: SPR relative binding (co-receptor complex formation with Aux/IAA7 degron), AtAFB2; conditions: 50 μM compound, compared to IAA
T2 construct: His10 (N, cleaved yes); eGFP (N, cleaved yes); FLAG (N, cleaved yes); made in house; host or cells: baculovirus; Trichoplusia ni Hi5 cells (virus generated in Sf9)
Procedure: as §4

AtAFB5 [6] = biological target: T3, AtAFB5 (Arabidopsis thaliana, UniProt Q9LTX2); test: SPR relative binding (co-receptor complex formation with Aux/IAA7 degron), AtAFB5; conditions: 50 μM compound, compared to IAA
T3 construct: His10 (N, cleaved yes); eGFP (N, cleaved yes); FLAG (N, cleaved yes); made in house; host or cells: baculovirus; Trichoplusia ni Hi5 cells (virus generated in Sf9)
Procedure: as §4

AtAFB5 [7] = biological target: T3, AtAFB5; test: biochemical; format: binding; conditions: averaged equilibrium dissociation constant, SPR single cycle kinetics; read-out: Ave KD
Procedure: as §4

AtTIR1 [8] = biological target: T1, AtTIR1; test: biochemical; format: binding; conditions: for Kd: averaged equilibrium dissociation constant, SPR single cycle kinetics, read-out: Ave KD
Procedure: as §4

AtAFB2 [9] = biological target: T2, AtAFB2; test: SPR single cycle kinetics, AtAFB2; format: binding; conditions: averaged equilibrium dissociation constant, SPR single cycle kinetics; read-out: Ave KD
Procedure: as §4

T3 sequence (Q9LTX2 whole entry, other chains not shown): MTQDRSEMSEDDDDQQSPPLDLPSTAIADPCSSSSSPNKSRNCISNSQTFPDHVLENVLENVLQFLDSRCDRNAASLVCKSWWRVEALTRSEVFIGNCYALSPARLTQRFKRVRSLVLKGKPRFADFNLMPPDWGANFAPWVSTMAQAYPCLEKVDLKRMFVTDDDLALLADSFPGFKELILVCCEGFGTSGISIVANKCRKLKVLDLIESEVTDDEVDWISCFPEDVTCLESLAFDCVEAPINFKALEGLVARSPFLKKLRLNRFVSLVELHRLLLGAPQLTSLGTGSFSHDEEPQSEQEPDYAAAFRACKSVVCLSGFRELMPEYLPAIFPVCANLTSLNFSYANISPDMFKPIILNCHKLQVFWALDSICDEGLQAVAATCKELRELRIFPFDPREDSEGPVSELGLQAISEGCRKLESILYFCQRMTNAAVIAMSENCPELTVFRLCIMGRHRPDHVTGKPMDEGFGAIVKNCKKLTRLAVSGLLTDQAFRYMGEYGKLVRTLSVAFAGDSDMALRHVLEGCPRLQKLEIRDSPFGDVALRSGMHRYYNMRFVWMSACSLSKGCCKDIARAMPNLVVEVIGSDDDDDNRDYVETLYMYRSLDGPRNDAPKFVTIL
T3 sequence (Q39255 whole entry partner, other chains not shown): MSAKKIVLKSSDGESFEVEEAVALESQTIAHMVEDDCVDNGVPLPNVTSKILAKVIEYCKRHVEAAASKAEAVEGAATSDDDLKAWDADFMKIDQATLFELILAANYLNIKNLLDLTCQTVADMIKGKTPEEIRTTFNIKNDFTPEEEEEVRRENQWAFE
T1 sequence (Q570C0 whole entry, other chains not shown): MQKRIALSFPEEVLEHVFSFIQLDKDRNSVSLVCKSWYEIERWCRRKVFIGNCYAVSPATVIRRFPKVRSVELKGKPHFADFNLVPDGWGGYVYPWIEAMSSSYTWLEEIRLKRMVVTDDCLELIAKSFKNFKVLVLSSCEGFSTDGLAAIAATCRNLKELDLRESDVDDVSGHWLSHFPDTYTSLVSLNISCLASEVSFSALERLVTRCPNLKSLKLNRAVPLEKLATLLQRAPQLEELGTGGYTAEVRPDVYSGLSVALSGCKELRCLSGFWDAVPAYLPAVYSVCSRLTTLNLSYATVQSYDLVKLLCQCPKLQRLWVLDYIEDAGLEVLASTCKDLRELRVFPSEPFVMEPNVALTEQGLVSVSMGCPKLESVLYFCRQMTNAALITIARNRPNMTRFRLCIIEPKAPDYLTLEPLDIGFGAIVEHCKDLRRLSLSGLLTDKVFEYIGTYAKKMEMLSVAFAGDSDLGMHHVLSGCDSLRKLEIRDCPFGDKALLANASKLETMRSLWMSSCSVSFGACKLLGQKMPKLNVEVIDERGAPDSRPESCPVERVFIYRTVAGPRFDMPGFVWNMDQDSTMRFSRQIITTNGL
T1 sequence (Q39255 whole entry partner, other chains not shown): as the sequence (Q39255 whole entry partner, other chains not shown) above
T2 sequence (Q9LW29 whole entry, other chains not shown): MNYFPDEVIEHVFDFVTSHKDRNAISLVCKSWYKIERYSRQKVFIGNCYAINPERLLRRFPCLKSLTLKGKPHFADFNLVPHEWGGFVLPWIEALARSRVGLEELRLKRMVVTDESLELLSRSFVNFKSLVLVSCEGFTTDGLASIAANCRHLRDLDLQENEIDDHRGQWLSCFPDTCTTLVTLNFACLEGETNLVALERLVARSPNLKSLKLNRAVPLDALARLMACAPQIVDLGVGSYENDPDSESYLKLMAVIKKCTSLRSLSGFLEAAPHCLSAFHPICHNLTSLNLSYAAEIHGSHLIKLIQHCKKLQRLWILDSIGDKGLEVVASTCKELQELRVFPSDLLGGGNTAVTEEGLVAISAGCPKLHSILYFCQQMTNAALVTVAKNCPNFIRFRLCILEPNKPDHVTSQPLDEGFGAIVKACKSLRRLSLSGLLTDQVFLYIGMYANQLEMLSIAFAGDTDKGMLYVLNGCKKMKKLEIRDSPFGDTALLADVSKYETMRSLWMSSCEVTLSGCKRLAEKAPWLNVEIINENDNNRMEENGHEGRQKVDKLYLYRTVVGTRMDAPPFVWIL
T2 sequence (Q39255 whole entry partner, other chains not shown): as the sequence (Q39255 whole entry partner, other chains not shown) above

SMILES	GR50 (DW % of NT) [1] [g ai ha^−1]	GR50 (visual injury) [1] [g ai ha^−1]	GR50 (DW % of NT) [2] [g ai ha^−1]	GR50 (visual injury) [2] [g ai ha^−1]	Resistance ratio (afb5‐1 vs WT), DW [2]	Resistance ratio (afb5‐1 vs WT), visual injury [2]	Resistance of afb5‐1 in root growth inhibition (in words) [3]	Relative binding (in words) (AtTIR1 [4])	Relative binding (in words) (AtAFB2 [5])	Relative binding (in words) (AtAFB5 [6])	Kd (AtAFB5 [7]) [µM]	Kd (AtTIR1 [8]) [µM]	Fold higher affinity for TIR1 (AtTIR1 [8]; from KD values, TIR1 versus other receptors) [fold]	Kd (AtAFB2 [9]) [µM]
Nc1nc(C2CC2)nc(C(=O)O)c1Cl [Aminocyclopyrachlor]	4.4	7	8.3	36.8	1.9	5.3	considerable resistance							
COc1c(Cl)ccc(Cl)c1C(=O)O [Dicamba]	16.5	169	60.8	290	3.7	1.7	No resistance	low binding	low binding	low binding				
O=C(O)COc1nc(Cl)c(Cl)cc1Cl [Triclopyr]	4.7	31.8	18.4	41.8	3.9	1.3		lower binding than IAA	lower binding than IAA	lower binding than IAA				
Nc1cc(Cl)nc(C(=O)O)c1Cl [Aminopyralid]	3.4	40.1	68.7		20.2		considerable resistance	relatively low binding	relatively low binding	relatively low binding				
Nc1c(F)c(-c2ccc(Cl)cc2)nc(C(=O)O)c1Cl [DAS534]		0.4	1.2	4.3		10.8				strong bias for binding to AtAFB5				
O=C(O)Cc1cccc2ccccc12 [1‐NAA, 1‐napthaleneacetic acid]							No resistance							
Cc1cc(Cl)ccc1OCC(=O)O [MCPA, 2‐methyl‐4‐chlorophenoxyacetic acid]								lower binding	lower binding	lower binding				
O=C(O)Cc1c[nH]c2ccccc12 [IAA, indole‐3‐acetic acid]											33	7.9	4	12.6
Nc1c(Cl)c(F)nc(OCC(=O)O)c1Cl [Fluroxypyr]	35.7	234	84.1	310	2.4	1.3		lower binding than IAA	lower binding than IAA	lower binding than IAA	95	18		45
Cc1cc(Cl)ccc1OC(C)C(=O)O (centres unmarked) [mecoprop]								lower binding	lower binding	lower binding				
O=C(O)c1nc(Cl)ccc1Cl [Clopyralid]	497	2698	3999	4259		1.6	considerable resistance	relatively low binding	relatively low binding	relatively low binding				
CC(Oc1ccc(Cl)cc1Cl)C(=O)O (centres unmarked) [dichlorprop]								lower binding	lower binding	lower binding				
